We go through five molecules from PMC12366332 (Applied and Environmental Microbiology, 2025).

Data set [1] deals with X. fastidiosa subsp. fastidiosa IVIA 5387.2. The settings on record: 50 µM.
In a further data set the test system is horse erythrocytes. The settings on record: red cells of horse, 50 µM.
In a further data set the test system is E. coli 0111:B4 LPS. Type of data set: biochemical, Escherichia coli.
The test system of a further data set is tobacco leaves. The settings on record: 150 µM; after 48 h.

Square brackets hold non-standard residues; d marks the D form. Ends that are not written are not given here. Peptide text beside a SMILES is read from it. * marks the point of attachment. Butyryl = CCCC(=O)*

For the molecule `CCCC(=O)NCCCC[C@H](NC(=O)[C@H](CCCCN)NC(=O)[C@H](CC(C)C)NC(=O)[C@@H](NC(=O)[C@H](CCCCN)NC(=O)[C@H](CCCCN)NC(=O)[C@H](Cc1c[nH]cn1)NC(=O)[C@H](CC(C)C)NC(=O)[C@H](CCCCN)NC(=O)[C@H](CCCCN)NC(C)=O)[C@@H](C)CC)C(=O)N[C@@H](CC(C)C)C(N)=O` [BP501, Ac-KKLHKKILKK(COC3H7)L-NH2] (Ac-KKLHKKILKK(Butyryl)L-NH2), in data set [1], the “Bactericidal activity Level” value is “Low (key: Very High: very high bactericidal activity (>2.5 log); High: high bactericidal activity (between 2.0 and 2.5 log); Moderate: a moderate activity (between 1.5 and 2.0 log); Low: low active (<1.5 log))”; the “Bactericidal activity Reduction in viability (Log N0/N)” value is 0,30 Log N0/N. Also, in the data set on horse erythrocytes, the “Hemolytic activity (%)” value was 2%. Besides, the “LPS neutralization Ratio (treatment/NTC)” value in the data set with E. coli 0111:B4 LPS is reported as 0,71. The “Phytotoxicity: diameter of the lesion” value in the data set on tobacco leaves came out at 0 mm.

In the case of `CCCC(=O)NCCCC[C@H](NC(=O)[C@H](CCCCN)NC(=O)[C@H](CCCCN)NC(C)=O)C(=O)N[C@H](Cc1ccccc1)C(=O)N[C@@H](CCCCN)C(=O)N[C@@H](CCCCN)C(=O)N[C@H](C(=O)N[C@@H](CC(C)C)C(=O)N[C@@H](CCCCN)C(=O)N[C@@H](Cc1ccc(O)cc1)C(=O)N[C@@H](CC(C)C)C(N)=O)[C@@H](C)CC` [BP549, Ac-KKK(COC3H7)fKKILKYL-NH2], in data set [1], the “Bactericidal activity Level” value was “Low (key: Very High: very high bactericidal activity (>2.5 log); High: high bactericidal activity (between 2.0 and 2.5 log); Moderate: a moderate activity (between 1.5 and 2.0 log); Low: low active (<1.5 log))”; the “Bactericidal activity Reduction in viability (Log N0/N)” value is 1,19 Log N0/N. The “Hemolytic activity (%)” value with horse erythrocytes is reported as 1%. Besides, the “LPS neutralization Ratio (treatment/NTC)” value in the data set on E. coli 0111:B4 LPS is listed as 1,10. For the same molecule, the “Phytotoxicity: diameter of the lesion” value with tobacco leaves is 5 mm.

For `CCCC(=O)NCCCC[C@H](NC(=O)[C@H](CCCCN)NC(=O)[C@H](CCCCN)NC(C)=O)C(=O)N[C@H](Cc1ccccc1)C(=O)N[C@@H](CCCCN)C(=O)N[C@@H](CCCCN)C(=O)N[C@@H](CCCCN)C(=O)N[C@@H](CC(C)C)C(=O)N[C@@H](CCCCN)C(=O)N[C@@H](Cc1ccc(O)cc1)C(=O)N[C@@H](CC(C)C)C(N)=O` [BP546, Ac-KKK(COC3H7)fKKKLKYL-NH2] (Ac-KKK(Butyryl)[dF]KKKLKYL-NH2), in data set [1], the “Bactericidal activity Level” value is “Low (key: Very High: very high bactericidal activity (>2.5 log); High: high bactericidal activity (between 2.0 and 2.5 log); Moderate: a moderate activity (between 1.5 and 2.0 log); Low: low active (<1.5 log))”; the “Bactericidal activity Reduction in viability (Log N0/N)” value is 0,34 Log N0/N. Moreover, the “Hemolytic activity (%)” value in the data set on horse erythrocytes is 0%. In addition, in the data set with E. coli 0111:B4 LPS, the “LPS neutralization Ratio (treatment/NTC)” value is 0,73. The “Phytotoxicity: diameter of the lesion” value with tobacco leaves came out at 0 mm.

For “RVQGRWKVRASFFK-NH2 [LBP-14, RVQGRWKVRASFFK-NH2, reference compound]”, in data set [1], the “Bactericidal activity Level” value is “Low (key: Very High: very high bactericidal activity (>2.5 log); High: high bactericidal activity (between 2.0 and 2.5 log); Moderate: a moderate activity (between 1.5 and 2.0 log); Low: low active (<1.5 log))”; the “Bactericidal activity Reduction in viability (Log N0/N)” value is on record as 0,51 Log N0/N. The “Hemolytic activity (%)” value in the data set with horse erythrocytes was 7%. For the same molecule, in the data set on E. coli 0111:B4 LPS, the “LPS neutralization Ratio (treatment/NTC)” value is listed as 0,23. The “Phytotoxicity: diameter of the lesion” value in the data set on tobacco leaves amounted to 1 mm.

Consider `CCCC(=O)NCCCC[C@H](NC(=O)[C@H](Cc1ccc(O)cc1)NC(=O)[C@H](CCCCN)NC(=O)[C@H](CC(C)C)NC(=O)[C@@H](NC(=O)[C@H](CCCCN)NC(=O)[C@H](CCCCN)NC(=O)[C@@H](Cc1ccccc1)NC(=O)[C@H](CC(C)C)NC(=O)[C@H](CCCCN)NC(=O)[C@H](CCCCN)NC(C)=O)[C@@H](C)CC)C(N)=O` [BP496, Ac-KKLfKKILKYK(COC3H7)-NH2] (Ac-KKL[dF]KKILKYK(Butyryl)-NH2), for which, in data set [1], the “Bactericidal activity Level” value is “Low (key: Very High: very high bactericidal activity (>2.5 log); High: high bactericidal activity (between 2.0 and 2.5 log); Moderate: a moderate activity (between 1.5 and 2.0 log); Low: low active (<1.5 log))”; the “Bactericidal activity Reduction in viability (Log N0/N)” value is given as 0,69 Log N0/N. Moreover, in the data set with horse erythrocytes, the “Hemolytic activity (%)” value is recorded as 0%. Further, the “LPS neutralization Ratio (treatment/NTC)” value in the data set with E. coli 0111:B4 LPS is listed as 0,92. Moreover, the “Phytotoxicity: diameter of the lesion” value in the data set on tobacco leaves worked out at 4 mm.
